{
  "source": "patent US6262086A",
  "about": "“Pharmaceutical unit dosage form” (priority 2000, dated 2001)",
  "test": "Solubility assessment as a function of HPβCD concentration",
  "type": "physicochemical",
  "method": "Solubility studies were performed by the addition of a known mass of 5(6)-methoxy-2-[[(4-methoxy-3,5-dimethyl-2-pyridinyl)-methyl]sulfinyl]-1H- benzimidazole and/or HPβCD to a given volume of solvent system. Solubilities were determined by observation, as the maximum concentration at which 5(6)-methoxy-2-[[(4-methoxy-3,5-dimethyl-2-pyridinyl)-methyl]sulfinyl]-1H- benzimidazole completely dissolved. Additionally, concentrations of 5(6)-methoxy-2-[[(4-methoxy-3,5-dimethyl-2-pyridinyl)-methyl]sulfinyl]-1H- benzimidazole and HPβCD at set molar ratios were solubilized in systems of high pH (adjusted as high as 12.2, with 1N NaOH), the pH was adjusted (using 2N HCl) in a stepwise downward manner until precipitation occurred.\nThe solubility of 5(6)-methoxy-2-[[(4-methoxy-3,5-dimethyl-2-pyridinyl)-methyl]sulfinyl]-1H- benzimidazole was assessed as a function of HPβCD concentration in water.\nThe procedure according to Example 86 was repeated except that water with a borate buffer (pH of 8) was employed.\nThe procedure according to Example 86 was repeated except that water with a phosphate buffer (pH of 11) was employed.",
  "note": "Several values for one entry are separate records, joined by “and”; a condition that tells them apart may be missing. Equal values may be shown once.",
  "data": [
    {"smiles": "COc1ccc2[nH]c([S+]([O-])Cc3ncc(C)c(OC)c3C)nc2c1", "note": "(stereo not drawn) [5(6)-methoxy-2-[[(4-methoxy-3,5-dimethyl-2-pyridinyl)-methyl]sulfinyl]-1H-benzimidazole]", "values": [
      {"measurement": "dependence of solubility on HPβCD concentration", "setting": "water with a borate buffer (pH of 8)", "result": "increase linearly as a function of HPβCD concentration"},
      {"measurement": "dependence of solubility on HPβCD concentration", "setting": "water with a phosphate buffer (pH of 11)", "result": "increase linearly as a function of HPβCD concentration"},
      {"measurement": "solubility", "setting": "water, read-out: aqueous solubility in water", "result": "~300 µg/mL and ~900 µM"}
    ]}
  ]
}
